Measurements reported in patent US9596851B1, “Method for controlling growth of red palm weevil” (priority 2015, dated 2017).
Read-outs that look alike come from different tables or passages of the source.

How the values were obtained:
Red Palm Weevil larvae [1] = test: Growth indices bioassay (nutritional indices ECI, ECD, AD) on coumarin-incorporated artificial diet; format: in vivo, Rhynchophorus ferrugineus; conditions: 72 hours post exposure; for inhibition at 1000 ppm: Rhynchophorus ferrugineus, feed or water, 72 h, 1000 ppm in diet
Description: Impact of different doses of coumarin on the growth and development of different larval instars of red palm weevil was evaluated by growth indices bioassays. All the solutions of coumarin were prepared by dissolving in 0.05% acetone. The ingredients of artificial diet (wheat flour @ 45 g/L, corn flour @ 45 g/L, Yeast @ 45 g/L, Agar @ 17.5 g/L, Sorbic acid @ 1.6 g/L, L-Ascorbic Acid @ 4 g/L, Pharmaton (2 capsules/L), Tetracycline @ 500 mg/L) were dissolved in 1 L of coumarin solution with strength 200 mg/L, 400 mg/L, 600 mg/L, 800 mg/L and 1000 mg/L of coumarin, separately. Newly moulted 4th, 8th and 12th instar Red Palm Weevil larvae were allowed to feed on each diet separately in perforated plastic bowls. In case of control treatment, 0.05% acetone was used to prepare the diet. Twenty larvae were used to compile one replicate. Five replicates were prepared likewise. The fresh diet was daily provided to the larvae. The experimental units were incubated at 30±1° C. and 75%±5% relative humidity. Initial and final weight of the larvae and the frass produced during 72 hours post exposure was also measured. These measurements were used to determine the impact of coumarin on the nutritional indices including: Approximate Digestibility [AD=([…]−frass weight)/food ingested×100], Efficacy of conversion of digested food [ECD=weight gained by the larva/(food ingested−dry weight of frass)×100] and Efficacy of conversion of ingested food [ECI=100×dry weight gained by the larva/dry weight of food consumed].
For growth indices, measurements were made 72 hours post-exposure on dry matter basis. Larvae, frass and remaining food after 72 h were dried at 60° C. until constant weight. Growth indices data were analyzed by one way analysis of variance (ANOVA). Means were compared by Fisher's Least Significant Difference (LSD) test.

Red Palm Weevil larvae [2] = test: Insecticidal potential of coumarin at different doses incorporated in artificial diet (mortality bioassay); format: in vivo, Rhynchophorus ferrugineus; conditions: for EC50 / LD50: artificial diet, after three days
Description: Insecticidal potential of coumarin at different dose concentrations (200 ppm, 400 ppm, 600 ppm, 800 ppm and 1000 ppm) was evaluated against 4th, 8th and 12th instar Red Palm Weevil larvae. The above mentioned concentrations of coumarin were prepared by dissolving coumarin in 0.05% acetone. The ingredients of artificial diet (wheat flour @ 45 g/L, corn flour @ 45 g/L, Yeast @ 45 g/L, Agar @ 17.5 g/L, Sorbic acid @ 1.6 g/L, L-Ascorbic Acid @ 4 g/L, Pharmaton (2 capsules/L), Tetracycline @ 500 mg/L) were dissolved in 1 L of coumarin solution with strength 200 mg/L, 400 mg/L, 600 mg/L, 800 mg/L and 1000 mg/L, separately. The newly moulted 4th, 8th and 12th instar Red Palm Weevil larvae were allowed to feed on each diet separately in perforated plastic bowls. In case of control treatment, 0.05% acetone was used to prepare the diet. Twenty larvae were used to compile one replicate. Five replicates were prepared likewise. The fresh diet was provided daily to the larvae. The experimental units were incubated at 30±1° C. and 75%±5% relative humidity. Abbot formula was used to correct the control mortality (Abbott, 1925). Efficacy of coumarin was determined at each dose to calculate LD50 values.

[3] = 4th, 8th and 12th instar larvae, 200-1000 ppm in diet

## O=c1ccc2ccccc2o1 [coumarin]
Red Palm Weevil larvae [1]; [3]
  approximate digestibility (AD): significantly increased
Red Palm Weevil larvae [1]; 4th instar larvae, read-out: ECD (efficacy of conversion of digested food) inhibition compared to control
  inhibition at 1000 ppm: 96.9%
Red Palm Weevil larvae [1]; 4th instar larvae, read-out: ECI (efficacy of conversion of ingested food) inhibition compared to control
  inhibition at 1000 ppm: 95.6%
Red Palm Weevil larvae [1]; 8th instar larvae, read-out: ECD (efficacy of conversion of digested food) inhibition compared to control
  inhibition at 1000 ppm: 89%
Red Palm Weevil larvae [1]; 8th instar larvae, read-out: ECI (efficacy of conversion of ingested food) inhibition compared to control
  inhibition at 1000 ppm: 84%
Red Palm Weevil larvae [1]; 12th instar larvae, read-out: ECD (efficacy of conversion of digested food) inhibition compared to control
  inhibition at 1000 ppm: 78.5%
Red Palm Weevil larvae [1]; 12th instar larvae, read-out: ECI (efficacy of conversion of ingested food) inhibition compared to control
  inhibition at 1000 ppm: 69.4%
Red Palm Weevil larvae [2]; 4th instar larvae
  EC50: 293.77 ppm
  LD50: 404.55 ppm
Red Palm Weevil larvae [2]; [3]
  mortality versus dose: directly proportional
Red Palm Weevil larvae [2]; 8th instar larvae
  EC50: 438.32 ppm
  LD50: 509.37 ppm
Red Palm Weevil larvae [2]; 12th instar larvae
  EC50: 559.77 ppm
  LD50: 708.24 ppm
